Measured values published in US20200032249A1, “LABELING, ISOLATION, & ANALYSIS OF RNA FROM RARE CELL POPULATIONS” (priority 2017, published 2020).
Read-outs that look alike come from different tables or passages of the source.

Experiments:
[1] = tested on: CD/UPRT-expressing cells; type: cell-based; conditions: human
Description: FIG. 2a-b. Flura-tagging has minimal cytotoxicity. FIG. 2a—Effect of Flura-tagging on stress granule formation. MDA231 cells were treated with 5-FC for the indicated times, and the formation of stress granules was detected by G3BP immunostaining. Control cells were either treated with water or sodium arsenite (Arsenite) for one hour. Arrows indicate stress granules (n=3). Scale bar=20 μM. FIG. 2b—Effect of Flura-tagging on transcription. RNA expression in control cells was compared to CD/UPRT-expressing cells treated with the indicated concentrations of 5-FC for 4 h or 12 h. Each dot represents a gene, with the outer/lighter gray dots indicating genes showing more than 2-fold differential expression, as determined by DESeq2 (n=2). The dotted line represents the four-fold cutoff mark.
For a more sensitive analysis of potential alterations caused by Flura-tagging, we investigated the transcriptional changes occurring under these experimental conditions. We compared the transcriptome of cells treated with two different concentrations of 5-FC (50 μM and 250 μM) at two different time points (4 h and 12 h) with that of control cells, using RNA-seq. […] This number increased to 190, 1325 and 1965 genes in cells treated with 250 μM 5-FC for 4 h, 50 μM 5-FC for 12 h, and 250 μM 5-FC for 12 h, respectively (FIG. 2b). Moreover, a majority of these differences in gene expression were within a four-fold range (FIG. 2b).
RNA-seq library preparation. Total RNA was purified using Qiagen RNeasy Mini Kit. Quality and quantity was checked by Agilent […]. 10 ng RNA per sample was used for library construction with Sample Prep Kit v2 (Illumina) according to manufacturer's instructions. Libraries were multiplex sequenced libraries on a Hiseq2500 platform, and more than 25 million raw paired-end reads were generated for each sample.
Reads were quality checked using FastQC v0.11.5 and mapped to a human (hg19) or hybrid human-mouse (hg19-mm10) genome with STAR2.5.2b (22) using standard settings for paired reads. Uniquely mapped reads were assigned to annotated genes with HTSeq v0.6.1p1 (23) with default settings. Read counts were normalized by library size, and differential gene expression analysis based on a negative binomial distribution was performed using DESeq2 v3.4 (24). In general, thresholds for differential expression were set as follows: adjusted p-value<0.05, fold change >2.0 or <0.5, and average normalized read count >10. Genes were considered detectable in the immunoprecipitation samples with a normalized read count >100. Gene set enrichment analysis was performed using GSVA v3.4 (25) and previously curated gene sets (26): HALLMARK_TGF_BETA_SIGNALING, HALLMARK_HEDGEHOG_SIGNALING, HALLMARK_WNT_BETA_CATENIN_SIGNALING, HALLMARK_PI3_K_AKT_MTOR_SIGNALING, HALLMARK_NOTCH_SIGNALING, HALLMARK_KRAS_SIGNALING_UP, CORDENONSI_YAP_CONSERVED_SIGNATURE, HALLMARK_IL6_JAK_STAT3_SIGNALING.

[2] = tested on: 293T cells; assay: anti-BrdU immunofluorescent staining of 293T cells treated with 5-FC or 5-FU; type: cell-based, human; conditions: 250 μM, 24 h
Description: S. cerevisiae CD was exogenously expressed in human embryonic kidney 293T cells, and the cells were treated with 250 μM fluorocytosine (5-FC). This system is predicted to generate intracellular fluorouracil (5-FU), which is then incorporated into newly synthesized RNAs (FIG. 1a, b). Antibodies against bromodeoxyuridine (BrdU) can recognize BrdU and other halogenated uridines incorporated into nucleic acids (8).
Human embryonic kidney transformed with […] (293T) and human breast cancer MDA-MB-231 (MDA231) cells were cultured in DMEM High Glucose medium (Wheaton) supplemented with 10% Fetal Bovine Serum (Clontech, Catalog number 631106) supplemented with 2 mM L-Glutamine. All cell lines have been routinely tested for mycoplasma contamination. For the induction of CD or CD and UPRT, cells were treated with 1 μg/ml doxycycline for 24 h. For Fluorouracil tagging, cells were treated with 250 μM of 5-FC or 5-FU unless indicated. Where indicated, 125 μM thymine was added together with 5-FC. For the formation of stress granules, cells were treated with 500 μM Sodium Arsenite (Santa Cruz Biotechnologies, Catalog number SC-301816).
Cells were fixed with 4% paraformaldehyde for 10 min, permeabilized with 0.2% TritonX-100 for 10 min, blocked with 5% BSA for one hour at room temperature, prior to incubation with primary antibodies at 4° C. overnight, and secondary antibodies (Thermo Fisher anti-chicken antibody, Catalog number A-11039, Thermo Fisher anti-rat antibody, Catalog number A-11006, Abcam anti-rat antibody, Catalog number ab150117) incubated for 1 h at room temperature. Mouse lungs were fixed in 4% paraformaldehyde overnight at 4° C., embedded in paraffin and sectioned. The lung sections were deparaffinized and stained with hematolxylin/eosin or immunostained using standard protocols. Automated image analysis was performed using the FIJI software package.

In the case of `Nc1nc(=O)[nH]cc1F` [5-FC, 5-fluorocytosine], the “genes with more than 4-fold difference” value ([1]; 4 h, 50 μM) is reported as 10 genes, the “genes with statistically significant differences in expression vs control cells” value ([1]; 4 h, 50 μM) is reported as 113 genes and the “genes with more than 4-fold difference” value ([1]; 4 h, 250 μM) is reported as 15 genes. The “genes with statistically significant differences in expression vs control cells” value ([1]; 4 h, 250 μM) was 190 genes, the “genes with more than 4-fold difference” value ([1]; 12 h, 50 μM) was 102 genes and the “genes with statistically significant differences in expression vs control cells” value ([1]; 12 h, 50 μM) was 1325 genes. The “genes with more than 4-fold difference” value ([1]; 12 h, 250 μM) was 182 genes, the “genes with statistically significant differences in expression vs control cells” value ([1]; 12 h, 250 μM) was 1965 genes and the “immunostaining with anti-BrdU antibody” value ([2]; 293T cells expressing CD) was “stained by the antibody”. For the same compound, the “immunostaining with anti-BrdU antibody” value ([2]; untransfected control 293T cells) was “did not”.
